Assay results taken from patent publication US9206122B2, “Pesticidal arylpyrrolidines” (BAYER INTELLECTUAL PROPERTY GMBH, priority 2012, dated 2015).

Legend:
Assay type in all cases: in vivo
[1] = test system: Boophilus microplus; test: Boophilus microplus injection test; settings: 20 μg/animal, injected into abdomen of adult engorged female ticks; egg deposition monitored after 7 days
Method: Boophilus microplus Injectiontest Solvent: dimethyl sulfoxide To produce a suitable preparation of active compound, 10 mg of active compound are dissolved in 0.5 ml solvent, and the concentrate is diluted with solvent to the desired concentration. Five adult engorged female ticks (Boophilus microplus) are injected with 1 μl compound solution into the abdomen. Ticks are transferred into replica plates and incubated in a climate chamber. After 7 days, the egg deposition of fertile eggs is monitored. Eggs where fertility is not visible are stored in glass tubes in a climate chamber till hatching after about 42 days. An efficacy of 100% means that all eggs are infertile; 0% means that all eggs are fertile.

[2] = test system: Ctenocephalides felis; test: whole plant or invertebrate; settings: po, 48 h
Method: Ctenocephalides felis—Oral Test
(§1) Solvent: dimethyl sulfoxide
To produce a suitable preparation of active compound, 10 mg of active compound are dissolved in 0.5 ml solvent, and the concentrate is diluted with cattle blood to the desired concentration.
Approximately 20 adult unfed cat fleas (Ctenocephalides felis) are placed in flea chambers. The blood chamber, sealed with parafilm on the bottom, are filled with cattle blood supplied with compound solution and placed on the gauze covered top of the flea chamber, so that the fleas are able to suck the blood. The blood chamber is heated to 37° C. whereas the flea chamber is kept at room temperature.
After 2 days mortality in % is determined 100% means that all the fleas have been killed; 0% means that none of the fleas have been killed.

[3] = test system: Lucilia cuprina; test: whole plant or invertebrate; settings: in Equus caballus, 48 h
Method: solvent: dimethyl sulfoxide
10 mg active compound are dissolved in 0.5 ml Dimethylsulfoxid. Serial dilutions are made to obtain the desired rates.
Approximately 20 1st instar larvae of the Australian sheep blowfly (Lucilia cuprina) are transferred into a test tube containing minced horse meat and compound solution of the desired concentration.
After 2 days mortality in % is determined. 100% means that all the larvae have been killed; 0% means that none of the larvae have been killed.

[4] = test system: Musca domestica; test: whole plant or invertebrate; settings: 48 h
Method: as §1
To produce a suitable preparation of active compound, 10 mg of active compound are dissolved in 0.5 ml solvent, and the concentrate is diluted with water to the desired concentration.
10 adult house flies (Musca domestica) are transferred into a container, containing a sponge soaked with a mixture of sugar solution and compound solution of the desired concentration.
After 2 days mortality in % is determined. 100% means that all the flies have been killed; 0% means that none of the flies have been killed.

[5] = test system: Myzus persicae; test: whole plant or invertebrate; settings: in Brassica rapa, foliar, 144 h
Method: Myzus persicae—Spray Test
(§2) Solvent: 78.0 parts by weight acetone
(§3) • 1.5 parts by weight dimethylformamide Emulsifier: 0.5 parts by weight alkylarylpolyglycolether
(§4) To produce a suitable preparation of active compound, 1 part by weight of active compound is mixed with the stated amount of solvent and emulsifier, and the concentrate is diluted with emulsifier-containing water to the desired concentration.
Chinese cabbage (Brassica pekinensis) leaf disks infected with all instars of the green peach aphid (Myzus persicae), are sprayed with a preparation of the active ingredient of the desired concentration.
After 6 days, mortality in % is determined 100% means that all aphids have been killed; 0% means that none of the aphids have been killed.

[6] = test system: Phaedon cochleariae; test: whole plant or invertebrate; settings: in Brassica rapa, foliar, 168 h
Method: Phaedon cochleariae—Spray Test
Solvent: 78.0 parts by weight of acetone
• 1.5 parts by weight of dimethylformamide Emulsifier: 0.5 parts by weight of alkylaryl polyglycolether
as §4
Chinese cabbage (Brassica pekinensis) leaf-disks are sprayed with a preparation of the active ingredient of the desired concentration. Once dry, the leaf disks are infested with mustard beetle larvae (Phaedon cochleariae).
After 7 days mortality in % is determined. 100% means that all beetle larvae have been killed and 0% means that none of the beetle larvae have been killed.

[7] = test system: Spodoptera frugiperda; test: whole plant or invertebrate; settings: in Zea mays, 168 h
Method: Spodoptera frugiperda—Spray Test
as §2, §3
To produce a suitable preparation of the active compound, 1 part by weight of active compound is mixed with the stated amount of solvent and emulsifier, and the concentrate is diluted with emulsifier-containing water to the desired concentration.
Maize (Zea mays) leaf sections are sprayed with a preparation of the active ingredient of the desired concentration. Once dry, the leaf sections are infested with fall armyworm larvae (Spodoptera frugiperda).
After 7 days, mortality in % is determined 100% means that all caterpillars have been killed and 0% means that none of the caterpillars have been killed.

[8] = test system: Tetranychus urticae; test: whole plant or invertebrate; settings: 144 h
Method: Tetranychus urticae—Spray Test, OP-Resistant
as §2, §3, §4
French beans (Phaseolus vulgaris) which are heavily infested with all stages of the two spotted spidermite (Tetranychus urticae), are sprayed with a preparation of the active ingredient of the desired concentration.
After 6 days, mortality in % is determined. 100% means that all spider mites have been killed and 0% means that none of the spider mites have been killed.

| Structure (SMILES) | efficacy (100% means that all eggs are infertile) [1] | also measured |
| --- | --- | --- |
| CC(=O)NC1CCc2cc(N3CCC(c4cc(Cl)cc(Cl)c4)(C(F)(F)F)C3O)ccc21 (stereo not drawn) [I-A-1] | 100% |  |
| CCC(=O)NC1CCc2cc(N3CCC(c4cc(Cl)cc(Cl)c4)(C(F)(F)F)C3O)ccc21 (stereo not drawn) [I-A-2] | 100% | mortality at 100 ppm [2]: 100%; mortality at 100 ppm [3]: 100%; mortality at 100 ppm [4]: 80% |
| CC(=O)NC1CCc2cc(N3CCC(c4cc(Cl)c(Cl)c(Cl)c4)(C(F)(F)F)C3O)ccc21 (stereo not drawn) [I-A-13] | 100% |  |
| CC(C)CC(=O)NC1CCc2cc(N3CCC(c4cc(Cl)c(Cl)c(Cl)c4)(C(F)(F)F)C3O)ccc21 (stereo not drawn) [I-A-18] | 100% |  |
| O=C(CC1CC1)NC1CCc2cc(N3CCC(c4cc(Cl)c(Cl)c(Cl)c4)(C(F)(F)F)C3O)ccc21 (stereo not drawn) [I-A-21] | 100% |  |
| O=C(NC1CCc2cc(N3CCC(c4cc(Cl)c(F)c(Cl)c4F)(C(F)(F)F)C3O)ccc21)C1CC1 (stereo not drawn) [I-A-31] | 100% |  |
| O=C(CC1CC1)NC1CCc2cc(N3CCC(c4cc(Cl)c(F)c(Cl)c4F)(C(F)(F)F)C3O)ccc21 (stereo not drawn) [I-A-33] | 100% |  |
| CC(=O)NC1CCc2cc(N3CCC(c4cc(C(F)(F)F)cc(C(F)(F)F)c4)(C(F)(F)F)C3O)ccc21 (stereo not drawn) [I-A-37] | 100% |  |
| CCC(=O)NC1CCc2cc(N3CCC(c4cc(C(F)(F)F)cc(C(F)(F)F)c4)(C(F)(F)F)C3O)ccc21 (stereo not drawn) [I-A-38, N-(5-{3-[3,5-bis(trifluoromethyl)phenyl]-2-hydroxy-3-(trifluoromethyl)pyrrolidin-1-yl}-2,3-dihydro-1H-inden-1-yl)propanamide] |  | mortality at 100 g/ha [5]: 100%; mortality at 100 g/ha [6]: 100%; mortality at 100 g/ha [7]: 100%; mortality at 100 g/ha [8]: 90% |
| CCCC(=O)NC1CCc2cc(N3CCC(c4cc(C(F)(F)F)cc(C(F)(F)F)c4)(C(F)(F)F)C3O)ccc21 (stereo not drawn) [I-A-40] | 100% |  |
| O=C(NC1CCc2cc(N3CCC(c4cc(Cl)cc(C(F)(F)F)c4)(C(F)(F)F)C3O)ccc21)C1CC1 (stereo not drawn) [I-A-79] | 100% |  |
| O=C(NC1CCc2cc(N3CCC(c4ccc(F)c(C(F)(F)F)c4)(C(F)(F)F)C3O)ccc21)C1CC1 (stereo not drawn) [I-A-115] | 100% |  |
